These are literature values, as cited in US9132083B2, “Delivery system comprising a silicon-containing material” (SISAF Ltd., priority 2009, dated 2015).

Take `[Na+].[O-][Si](O)(O)O` [Na^+(OSA)^− salt]: the pKa result is recorded as “about 6”.
